According to patent US20090264492A1, “PHARMACEUTICAL COMPOSITION FOR THE TREATMENT OF A FUNGAL SKIN DISORDER AND A METHOD FOR THE PREPARATION THEREOF” (Stichting Voor de Technische Wetenschappen, priority 2006, published 2009):

What was measured:
T. rubrum = assay: PDT of T. rubrum on human stratum corneum (ex-vivo model), fungicidal effect; type: cell-based, Trichophyton rubrum; details: acidic pH versus pH 7.4
Experimental: A polycarbonate membrane filter, 25 mm in diameter and a pore size of 2 μm (Whatman, Breda, The Netherlands) was placed in the central part of a 3 cm culture dish (Greiner, Alphen aan den Rijn, The Netherlands) filled with 5 ml of Malt Extract Agar (MEA). A circular piece of human stratum corneum (SC) with a diameter of 1 cm was subsequently placed on the membrane filter and both were gently brushed with a paintbrush dipped in 70% ethanol. A microconidia suspension isolated from Trichphyton rubrum (CBS nr. 304.60 obtained from Centraal Bureau voor Schimmelcultures, Utrecht, The Netherlands, and prepared as described by Smijs G. M. T. et al (2004) in “Photodynamic treatment of the dermatophyte Trichophyton Rubrum and its microconidia with porphyrin sensitizers. PhotoChemistry and PhotoBiology, 80, 197 - 202”) was diluted to 1000 CFU/ml and 15 μl was inoculated on the circular sheet of human SC. The dish was placed in an incubator at 28° C. and at 17 hours after spore inoculation photodynamic treatment (PDT) was applied.
At 17 hours after spore inoculation, the membrane filter with SC containing spore inoculates was transported from the MEA dish to a 3 cm culture dish filled with 1035 μl incubation medium. The incubation medium contained 1 ml of distilled water with an adjusted pH (3.5, 4.5, 5.2, or 7.4) and 35 μl of a Sylsens B stock solution (Buchem, Apeldoorn, the Nederland) . To optimize the contact of the inoculates with the incubation medium, the membrane filter with the SC was turned upside down during the incubation period of 2 hours. The incubation was performed under continuous shaking conditions. Shortly before the illumination period the membrane filter containing the SC was turned back (surface SC now faces the lamp). In all cases, the illumination time was 1 hour using a red light irradiance of 30 mW/cm^2. This corresponds to a light dose of 108 J/cm^2. After the illumination the membrane filter with the SC were transported to a fresh MEA dish, placed in a 28° C. incubator and fungal growth was followed for several weeks. Dark controls were included, i.e. the same procedure was carried out except that the inoculated microconidia on human skin were treated with solvent and/or photosensitizer in the dark. In the light controls, the microconidia were treated with solvent (only) in the presence of light. The efficacy of the treatment was expressed as a relative frequency of complete inactivation (killing) of fungal growth detected at day 8 after spore inoculation. This was assessed microscopically with the use of a Zeiss Axiovert 25 (Germany). […] The treatment effect was followed for a period of several months. Every experiment contained 4 to 6 duplicates of all conditions and the experiments were repeated 3 times at least.
PDT of T. rubrum 17 hours after spore inoculation using the ex-vivo model, different concentrations of Sylsens B and a different pH (water medium). The numbers indicate the relative frequency of the fungicidal effect^1. Numbers between brackets give the number of tests performed.
The experiment with Sylsens B was repeated more extensively, for a longer period of time and with more samples. More specifically, the photodynamic efficacy of Sylsens B towards T. rubrum was tested at 17 (FIG. 2a), 48 (FIG. 2b) and 72 hours (FIG. 2c) after spore inoculation on human SC, at the following incubation pH values: Filled diamonds: pH 3.5, filled squares: pH 5.2 and filled triangles: pH 7.4.

[1] = test system: the fungus cultivated in suspension; assay: binding of Sylsens B to the fungus cultivated in suspension / photodynamic effect with competing cations; type: cell-based, T. rubrum; details: Alcian Blue 160 μM versus Sylsens B 160 μM
Experimental: In the above experiments, deuteroporphyrin monomethylether (DP mme), an anionic porphyrin, was used as a control. […] The effect of calcium-ions was investigated by determining the photodynamic effect in the presence of 5 mM CaCl2 at pH 5.2. […] So, PDT may even be used to inactivate (kill) the growing fungus if measures are taken to prevent naturally present calcium from interfering with the treatment, in particular by using a chelating compound such as EDTA.

Compound | effect of acidic pH on photodynamic activity (T. rubrum) | competition for binding to the fungus [1]
C[n+]1ccc(-c2c3nc(c(-c4cc[n+](C)cc4)c4ccc([nH]4)c(-c4cc[n+](C)cc4)c4nc(c(-c5cc[n+](C)cc5)c5ccc2[nH]5)C=C4)C=C3)cc1.[Cl-].[Cl-].[Cl-].[Cl-] [meso-tetra(N-methyl-4-pyridyl)porphyrin tetrachloride, reference compound] | improved activity at acidic pH, albeit to a lesser extent than Sylsens B | 
deuteroporphyrin monomethylether [DP mme, reference compound] | failed to display the observed pH effect | 
Alcian Blue [reference compound] |  | competed with Sylsens B
